Reference: PMC5341858, “Molecular regulation of apoptotic machinery and lipid metabolism by mTORC1/mTORC2 dual inhibitors in preclinical models of HER2+/PIK3CAmut breast cancer” (Oncotarget, 2016)
pKd: −log10 of the molar value.

Legend:
Experiment in all cases: KINOMEscan binding assay
RET = target: T1, RET (Homo sapiens, UniProt P07949); details: 1000 nM, percent control relative to vehicle
T1 construct: purchased DiscoveRx KINOMEscan
Excerpt: (§1) IC50 values were generated using Graphpad PRISM 5 software.

EPHA2 = target: T2, EPHA2 (Homo sapiens, UniProt P29317); details: 1000 nM, percent control relative to vehicle
T2 construct: purchased DiscoveRx KINOMEscan
Excerpt: as §1

BRAF = target: T3, BRAF (Homo sapiens, UniProt P15056); details: 1000 nM, percent control relative to vehicle
T3 construct: purchased DiscoveRx KINOMEscan
Excerpt: as §1

MET = target: T4, MET (Homo sapiens, UniProt P08581); details: 1000 nM, percent control relative to vehicle
T4 construct: purchased DiscoveRx KINOMEscan
Excerpt: as §1

DCAMKL1 = target: T5, DCAMKL1 (Homo sapiens, UniProt O15075); details: 1000 nM, percent control relative to vehicle
T5 construct: purchased DiscoveRx KINOMEscan
Excerpt: as §1

JNK1 = target: T6, JNK1 (Homo sapiens, UniProt P45983); details: 1000 nM, percent control relative to vehicle
T6 construct: purchased DiscoveRx KINOMEscan
Excerpt: as §1

PDGFRA = target: T7, PDGFRA (Homo sapiens, UniProt P16234); details: 1000 nM, percent control relative to vehicle
T7 construct: purchased DiscoveRx KINOMEscan
Excerpt: as §1

ADCK3 = target: T8, ADCK3 (Homo sapiens, UniProt Q8NI60); details: 1000 nM, percent control relative to vehicle
T8 construct: purchased DiscoveRx KINOMEscan
Excerpt: as §1

MLK1 = target: T9, MLK1 (Homo sapiens, UniProt P80192); details: 1000 nM, percent control relative to vehicle
T9 construct: purchased DiscoveRx KINOMEscan
Excerpt: as §1

DYRK1B = target: T10, DYRK1B (Homo sapiens, UniProt Q9Y463); details: 1000 nM, percent control relative to vehicle
T10 construct: purchased DiscoveRx KINOMEscan
Excerpt: as §1

CDK7 = target: T11, CDK7 (Homo sapiens, UniProt P50613); details: 1000 nM, percent control relative to vehicle
T11 construct: purchased DiscoveRx KINOMEscan
Excerpt: as §1

TGFBR1 = target: T12, TGFBR1 (Homo sapiens, UniProt P36897); details: 1000 nM, percent control relative to vehicle
T12 construct: purchased DiscoveRx KINOMEscan
Excerpt: as §1

MEK1 = target: T13, MEK1 (Homo sapiens, UniProt Q02750); details: 1000 nM, percent control relative to vehicle
T13 construct: purchased DiscoveRx KINOMEscan
Excerpt: as §1

ULK2 = target: T14, ULK2 (Homo sapiens, UniProt Q8IYT8); details: 1000 nM, percent control relative to vehicle
T14 construct: purchased DiscoveRx KINOMEscan
Excerpt: as §1

FLT3 = target: T15, FLT3 (Homo sapiens, UniProt P36888); details: 1000 nM, percent control relative to vehicle
T15 construct: purchased DiscoveRx KINOMEscan
Excerpt: as §1

CHEK1 = target: T16, CHEK1 (Homo sapiens, UniProt O14757); details: 1000 nM, percent control relative to vehicle
T16 construct: purchased DiscoveRx KINOMEscan
Excerpt: as §1

TSSK1B = target: T17, TSSK1B (Homo sapiens, UniProt Q9BXA7); details: 1000 nM, percent control relative to vehicle
T17 construct: purchased DiscoveRx KINOMEscan
Excerpt: as §1

IKK-beta = target: T18, IKK-beta (Homo sapiens, UniProt O14920); details: 1000 nM, percent control relative to vehicle
T18 construct: purchased DiscoveRx KINOMEscan
Excerpt: as §1

[1] = target: T19, JAK3 (JH1domain-catalytic) (Homo sapiens, UniProt P52333); details: 1000 nM, percent control relative to vehicle
T19 construct: JAK3 (JH1domain-catalytic); purchased DiscoveRx KINOMEscan
Excerpt: as §1

PIK3CG = PIK3CG (Homo sapiens, UniProt P48736)
Excerpt: as §1

CDK9 = target: T20, CDK9 (Homo sapiens, UniProt P50750); details: 1000 nM, percent control relative to vehicle
T20 construct: purchased DiscoveRx KINOMEscan
Excerpt: as §1

[2] = target: T21, ABL1 (T315I)- phosphorylated (Homo sapiens, UniProt P00519, T315I); details: 1000 nM, percent control relative to vehicle
T21 construct: purchased DiscoveRx KINOMEscan
Excerpt: as §1

TRKA = target: T22, TRKA (Homo sapiens, UniProt P04629); details: 1000 nM, percent control relative to vehicle
T22 construct: purchased DiscoveRx KINOMEscan
Excerpt: as §1

IKK-alpha = target: T23, IKK-alpha (Homo sapiens, UniProt O15111); details: 1000 nM, percent control relative to vehicle
T23 construct: purchased DiscoveRx KINOMEscan
Excerpt: as §1

ACVR1B = target: T24, ACVR1B (Homo sapiens, UniProt P36896); details: 1000 nM, percent control relative to vehicle
T24 construct: purchased DiscoveRx KINOMEscan
Excerpt: as §1

YANK3 = target: T25, YANK3 (Homo sapiens, UniProt Q86UX6); details: 1000 nM, percent control relative to vehicle
T25 construct: purchased DiscoveRx KINOMEscan
Excerpt: as §1

p38-beta = target: T26, p38-beta (Homo sapiens, UniProt Q15759); details: 1000 nM, percent control relative to vehicle
T26 construct: purchased DiscoveRx KINOMEscan
Excerpt: as §1

CSF1R = target: T27, CSF1R (Homo sapiens, UniProt P07333); details: 1000 nM, percent control relative to vehicle
T27 construct: purchased DiscoveRx KINOMEscan
Excerpt: as §1

PKAC-alpha = target: T28, PKAC-alpha (Homo sapiens, UniProt P17612); details: 1000 nM, percent control relative to vehicle
T28 construct: purchased DiscoveRx KINOMEscan
Excerpt: as §1

TIE2 = target: T29, TIE2 (Homo sapiens, UniProt Q02763); details: 1000 nM, percent control relative to vehicle
T29 construct: purchased DiscoveRx KINOMEscan
Excerpt: as §1

BTK = target: T30, BTK (Homo sapiens, UniProt Q06187); details: 1000 nM, percent control relative to vehicle
T30 construct: purchased DiscoveRx KINOMEscan
Excerpt: as §1

EGFR = target: T31, EGFR (Homo sapiens, UniProt P00533); details: 1000 nM, percent control relative to vehicle
T31 construct: purchased DiscoveRx KINOMEscan
Excerpt: as §1

ROCK2 = target: T32, ROCK2 (Homo sapiens, UniProt O75116); details: 1000 nM, percent control relative to vehicle
T32 construct: purchased DiscoveRx KINOMEscan
Excerpt: as §1

JNK2 = target: T33, JNK2 (Homo sapiens, UniProt P45984); details: 1000 nM, percent control relative to vehicle
T33 construct: purchased DiscoveRx KINOMEscan
Excerpt: as §1

PAK4 = target: T34, PAK4 (Homo sapiens, UniProt O96013); details: 1000 nM, percent control relative to vehicle
T34 construct: purchased DiscoveRx KINOMEscan
Excerpt: as §1

AKT1 = target: T35, AKT1 (Homo sapiens, UniProt P31749); details: 1000 nM, percent control relative to vehicle
T35 construct: purchased DiscoveRx KINOMEscan
Excerpt: as §1

MARK3 = target: T36, MARK3 (Homo sapiens, UniProt P27448); details: 1000 nM, percent control relative to vehicle
T36 construct: purchased DiscoveRx KINOMEscan
Excerpt: as §1

PIK3CB = PIK3CB (Homo sapiens, UniProt P42338)
Excerpt: as §1

PIM2 = target: T37, PIM2 (Homo sapiens, UniProt Q9P1W9); details: 1000 nM, percent control relative to vehicle
T37 construct: purchased DiscoveRx KINOMEscan
Excerpt: as §1

ERBB4 = target: T38, ERBB4 (Homo sapiens, UniProt Q15303); details: 1000 nM, percent control relative to vehicle
T38 construct: purchased DiscoveRx KINOMEscan
Excerpt: as §1

BRAF (V600E) = target: T39, BRAF (V600E) (Homo sapiens, UniProt P15056, V600E); details: 1000 nM, percent control relative to vehicle
T39 construct: purchased DiscoveRx KINOMEscan
Excerpt: as §1

ABL1-nonphosphorylated = target: T40, ABL1-nonphosphorylated (Homo sapiens, UniProt P00519); details: 1000 nM, percent control relative to vehicle
T40 construct: purchased DiscoveRx KINOMEscan
Excerpt: as §1

INSR = target: T41, INSR (Homo sapiens, UniProt P06213); details: 1000 nM, percent control relative to vehicle
T41 construct: purchased DiscoveRx KINOMEscan
Excerpt: as §1

PLK1 = target: T42, PLK1 (Homo sapiens, UniProt P53350); details: 1000 nM, percent control relative to vehicle
T42 construct: purchased DiscoveRx KINOMEscan
Excerpt: as §1

VEGFR2 = target: T43, VEGFR2 (Homo sapiens, UniProt P35968); details: 1000 nM, percent control relative to vehicle
T43 construct: purchased DiscoveRx KINOMEscan
Excerpt: as §1

Sequence of PIK3CG (P48736 whole entry): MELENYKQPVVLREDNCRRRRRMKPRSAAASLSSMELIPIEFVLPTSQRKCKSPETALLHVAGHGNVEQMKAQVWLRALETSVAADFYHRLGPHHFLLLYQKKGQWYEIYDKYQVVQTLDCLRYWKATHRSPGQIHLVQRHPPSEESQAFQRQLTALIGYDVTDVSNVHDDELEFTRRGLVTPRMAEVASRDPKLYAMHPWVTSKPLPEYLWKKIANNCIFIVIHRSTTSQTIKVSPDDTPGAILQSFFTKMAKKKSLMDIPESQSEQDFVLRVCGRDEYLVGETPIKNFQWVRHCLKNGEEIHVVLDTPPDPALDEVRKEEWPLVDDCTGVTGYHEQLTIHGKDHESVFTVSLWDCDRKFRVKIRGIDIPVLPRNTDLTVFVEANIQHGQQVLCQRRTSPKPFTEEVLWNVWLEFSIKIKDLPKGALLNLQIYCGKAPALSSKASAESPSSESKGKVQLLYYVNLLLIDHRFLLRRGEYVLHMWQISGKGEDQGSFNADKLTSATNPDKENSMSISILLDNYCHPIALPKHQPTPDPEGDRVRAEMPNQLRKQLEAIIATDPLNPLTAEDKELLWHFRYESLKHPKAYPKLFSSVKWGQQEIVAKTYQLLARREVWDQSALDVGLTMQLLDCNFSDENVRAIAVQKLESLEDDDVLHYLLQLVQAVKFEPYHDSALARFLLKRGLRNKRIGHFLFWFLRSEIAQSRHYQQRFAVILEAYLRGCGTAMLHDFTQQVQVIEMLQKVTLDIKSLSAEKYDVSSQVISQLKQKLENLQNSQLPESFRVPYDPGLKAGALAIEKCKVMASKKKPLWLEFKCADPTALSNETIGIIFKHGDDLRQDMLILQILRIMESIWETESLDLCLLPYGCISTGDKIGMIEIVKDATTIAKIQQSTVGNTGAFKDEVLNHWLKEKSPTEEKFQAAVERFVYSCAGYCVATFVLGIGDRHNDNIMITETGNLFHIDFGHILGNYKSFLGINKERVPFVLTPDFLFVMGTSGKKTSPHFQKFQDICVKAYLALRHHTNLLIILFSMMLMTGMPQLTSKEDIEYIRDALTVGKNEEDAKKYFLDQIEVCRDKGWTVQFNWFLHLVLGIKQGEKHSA
T19 sequence (P52333 813-1124 limits assumed): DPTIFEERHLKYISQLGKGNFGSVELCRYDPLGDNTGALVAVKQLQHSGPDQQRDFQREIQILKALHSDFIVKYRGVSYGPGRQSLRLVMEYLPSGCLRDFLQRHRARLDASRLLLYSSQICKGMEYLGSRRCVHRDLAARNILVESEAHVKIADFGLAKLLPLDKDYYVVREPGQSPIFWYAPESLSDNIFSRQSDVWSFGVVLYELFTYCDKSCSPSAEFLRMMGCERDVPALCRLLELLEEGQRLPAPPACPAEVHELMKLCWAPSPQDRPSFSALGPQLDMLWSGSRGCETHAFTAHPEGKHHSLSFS
T8 sequence (Q8NI60 163-647): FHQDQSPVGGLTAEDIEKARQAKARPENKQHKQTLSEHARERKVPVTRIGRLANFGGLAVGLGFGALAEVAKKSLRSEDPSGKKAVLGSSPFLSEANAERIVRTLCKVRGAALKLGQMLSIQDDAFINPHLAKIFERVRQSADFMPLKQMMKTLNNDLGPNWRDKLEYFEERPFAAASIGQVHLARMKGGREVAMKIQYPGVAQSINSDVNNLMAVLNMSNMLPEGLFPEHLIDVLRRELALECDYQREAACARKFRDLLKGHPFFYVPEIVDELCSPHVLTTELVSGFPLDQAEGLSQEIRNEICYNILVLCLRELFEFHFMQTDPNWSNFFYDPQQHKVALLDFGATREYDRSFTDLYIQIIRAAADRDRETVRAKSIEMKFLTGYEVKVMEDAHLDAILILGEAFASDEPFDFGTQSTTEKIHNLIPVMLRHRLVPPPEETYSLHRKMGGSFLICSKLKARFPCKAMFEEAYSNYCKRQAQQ
T18 sequence (O14920 whole entry): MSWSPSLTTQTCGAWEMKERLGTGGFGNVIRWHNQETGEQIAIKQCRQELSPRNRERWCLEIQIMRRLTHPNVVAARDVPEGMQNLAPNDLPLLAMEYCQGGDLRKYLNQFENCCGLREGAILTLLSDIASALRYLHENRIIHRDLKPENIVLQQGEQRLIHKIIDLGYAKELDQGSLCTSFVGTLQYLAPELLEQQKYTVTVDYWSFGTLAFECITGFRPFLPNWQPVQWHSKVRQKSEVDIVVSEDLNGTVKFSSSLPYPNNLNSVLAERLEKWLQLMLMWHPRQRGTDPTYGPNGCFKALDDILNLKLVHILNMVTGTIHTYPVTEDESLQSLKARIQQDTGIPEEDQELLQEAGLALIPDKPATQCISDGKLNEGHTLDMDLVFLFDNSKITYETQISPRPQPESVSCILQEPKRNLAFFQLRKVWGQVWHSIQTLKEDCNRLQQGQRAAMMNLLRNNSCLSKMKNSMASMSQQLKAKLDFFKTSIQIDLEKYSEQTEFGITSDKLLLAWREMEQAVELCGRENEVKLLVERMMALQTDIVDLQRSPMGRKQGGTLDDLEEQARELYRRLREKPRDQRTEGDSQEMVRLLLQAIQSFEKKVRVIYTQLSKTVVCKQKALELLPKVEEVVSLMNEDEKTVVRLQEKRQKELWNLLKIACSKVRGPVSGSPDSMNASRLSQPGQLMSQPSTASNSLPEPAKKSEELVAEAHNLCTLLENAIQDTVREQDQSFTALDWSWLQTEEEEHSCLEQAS
T37 sequence (Q9P1W9 whole entry): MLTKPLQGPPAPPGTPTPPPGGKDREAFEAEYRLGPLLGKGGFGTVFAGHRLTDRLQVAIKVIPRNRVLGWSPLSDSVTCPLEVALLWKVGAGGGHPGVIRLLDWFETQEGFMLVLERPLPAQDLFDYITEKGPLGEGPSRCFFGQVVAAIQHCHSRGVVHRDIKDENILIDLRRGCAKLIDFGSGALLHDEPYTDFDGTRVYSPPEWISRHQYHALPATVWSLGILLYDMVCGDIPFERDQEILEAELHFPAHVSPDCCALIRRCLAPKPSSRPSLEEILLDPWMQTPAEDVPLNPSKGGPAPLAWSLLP
T10 sequence (Q9Y463 whole entry): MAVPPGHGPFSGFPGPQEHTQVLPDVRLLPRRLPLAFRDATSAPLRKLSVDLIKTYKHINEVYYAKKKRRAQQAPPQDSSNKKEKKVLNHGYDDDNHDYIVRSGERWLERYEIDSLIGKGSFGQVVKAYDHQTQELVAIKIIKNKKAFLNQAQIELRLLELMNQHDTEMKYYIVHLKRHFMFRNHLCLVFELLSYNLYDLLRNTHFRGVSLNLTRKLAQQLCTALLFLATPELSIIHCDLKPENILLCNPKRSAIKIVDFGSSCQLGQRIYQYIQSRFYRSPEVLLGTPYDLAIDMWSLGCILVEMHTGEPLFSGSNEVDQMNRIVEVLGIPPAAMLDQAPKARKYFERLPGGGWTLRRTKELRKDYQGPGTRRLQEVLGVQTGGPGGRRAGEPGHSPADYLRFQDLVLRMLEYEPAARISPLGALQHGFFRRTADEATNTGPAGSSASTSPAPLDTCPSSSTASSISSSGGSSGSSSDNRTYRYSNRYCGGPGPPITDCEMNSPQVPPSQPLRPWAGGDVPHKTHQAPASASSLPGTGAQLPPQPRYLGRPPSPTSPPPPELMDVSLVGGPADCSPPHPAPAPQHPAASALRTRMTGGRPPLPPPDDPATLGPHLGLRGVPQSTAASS
T11 sequence (P50613 whole entry): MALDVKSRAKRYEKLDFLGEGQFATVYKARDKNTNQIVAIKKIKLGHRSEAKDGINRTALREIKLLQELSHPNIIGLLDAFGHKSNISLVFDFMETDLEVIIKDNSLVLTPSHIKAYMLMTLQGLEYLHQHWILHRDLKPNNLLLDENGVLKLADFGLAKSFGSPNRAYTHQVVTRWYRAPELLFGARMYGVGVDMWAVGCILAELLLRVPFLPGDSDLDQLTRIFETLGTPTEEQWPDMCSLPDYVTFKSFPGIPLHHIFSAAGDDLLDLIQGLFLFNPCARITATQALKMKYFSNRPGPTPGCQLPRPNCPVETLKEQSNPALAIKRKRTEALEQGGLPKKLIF
T16 sequence (O14757 whole entry): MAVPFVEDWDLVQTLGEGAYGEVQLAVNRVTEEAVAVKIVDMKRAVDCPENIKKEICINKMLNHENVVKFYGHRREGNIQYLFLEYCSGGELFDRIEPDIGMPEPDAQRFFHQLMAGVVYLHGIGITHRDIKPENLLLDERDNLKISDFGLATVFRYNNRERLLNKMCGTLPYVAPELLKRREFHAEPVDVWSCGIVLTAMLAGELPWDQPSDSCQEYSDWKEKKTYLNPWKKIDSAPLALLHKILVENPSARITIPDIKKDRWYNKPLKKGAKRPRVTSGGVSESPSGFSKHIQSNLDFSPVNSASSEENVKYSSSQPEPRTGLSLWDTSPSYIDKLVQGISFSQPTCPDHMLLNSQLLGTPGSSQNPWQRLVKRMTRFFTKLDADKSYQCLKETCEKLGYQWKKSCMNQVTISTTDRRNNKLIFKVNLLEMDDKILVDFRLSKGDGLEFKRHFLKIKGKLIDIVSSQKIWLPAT
T35 sequence (P31749 whole entry): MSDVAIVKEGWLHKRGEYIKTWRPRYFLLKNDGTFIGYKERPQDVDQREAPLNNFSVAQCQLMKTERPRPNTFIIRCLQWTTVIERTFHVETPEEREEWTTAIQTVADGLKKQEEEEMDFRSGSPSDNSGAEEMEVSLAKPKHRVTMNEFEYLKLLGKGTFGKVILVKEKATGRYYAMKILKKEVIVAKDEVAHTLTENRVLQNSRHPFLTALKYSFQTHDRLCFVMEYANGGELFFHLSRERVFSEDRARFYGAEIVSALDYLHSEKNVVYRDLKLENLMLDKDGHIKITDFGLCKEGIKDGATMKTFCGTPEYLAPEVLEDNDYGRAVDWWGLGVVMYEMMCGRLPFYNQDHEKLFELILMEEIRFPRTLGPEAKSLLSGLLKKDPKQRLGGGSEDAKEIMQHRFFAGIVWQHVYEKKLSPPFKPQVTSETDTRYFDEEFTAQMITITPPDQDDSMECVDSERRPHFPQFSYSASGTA

SMILES: CNC(=O)c1cccc(-c2ccc3c(N4C5CCC4COC5)nc(N4CCOC[C@@H]4C)nc3n2)c1 [MTI-31]
- % Control (RET): 100%
- % Control (EPHA2): 98%
- % Control (BRAF): 80%
- % Control (MET): 100%
- % Control (DCAMKL1): 76%
- % Control (JNK1): 81%
- % Control (PDGFRA): 93%
- % Control (ADCK3): 97%
- % Control (MLK1): 100%
- % Control (DYRK1B): 100%
- % Control (CDK7): 99%
- % Control (TGFBR1): 93%
- % Control (MEK1): 73%
- % Control (ULK2): 80%
- % Control (FLT3): 100%
- % Control (CHEK1): 83%
- % Control (TSSK1B): 100%
- % Control (IKK-beta): 69%
- % Control [1]: 82%
- pKd (PIK3CG): < 6.00
- % Control (PIK3CG; 1000 nM, percent control relative to vehicle): 100%
- % Control (CDK9): 90%
- % Control [2]: 76%
- % Control (TRKA): 84%
- % Control (IKK-alpha): 82%
- % Control (ACVR1B): 86%
- % Control (YANK3): 85%
- % Control (p38-beta): 100%
- % Control (CSF1R): 99%
- % Control (PKAC-alpha): 98%
- % Control (TIE2): 100%
- % Control (BTK): 68%
- % Control (EGFR): 94%
- % Control (ROCK2): 73%
- % Control (JNK2): 96%
- % Control (PAK4): 100%
- % Control (AKT1): 100%
- % Control (MARK3): 71%
- pKd (PIK3CB): < 6.00
- % Control (PIM2): 92%
- % Control (ERBB4): 100%
- % Control (BRAF (V600E)): 93%
- % Control (ABL1-nonphosphorylated): 52%
- % Control (INSR): 100%
- % Control (PLK1): 78%
- % Control (VEGFR2): 98%
